These compounds were tested against T1, Human sEH (hsEH) (Homo sapiens, UniProt P34913) (assay: fluorescence-based sEH biochemical inhibition assay (PHOME substrate)). Conditions: Table 1; hsEH 5 nM, PHOME 50 μM, 30° C.
T1 construct: purchased Cayman Chemicals
T1 sequence (P34913 1-555): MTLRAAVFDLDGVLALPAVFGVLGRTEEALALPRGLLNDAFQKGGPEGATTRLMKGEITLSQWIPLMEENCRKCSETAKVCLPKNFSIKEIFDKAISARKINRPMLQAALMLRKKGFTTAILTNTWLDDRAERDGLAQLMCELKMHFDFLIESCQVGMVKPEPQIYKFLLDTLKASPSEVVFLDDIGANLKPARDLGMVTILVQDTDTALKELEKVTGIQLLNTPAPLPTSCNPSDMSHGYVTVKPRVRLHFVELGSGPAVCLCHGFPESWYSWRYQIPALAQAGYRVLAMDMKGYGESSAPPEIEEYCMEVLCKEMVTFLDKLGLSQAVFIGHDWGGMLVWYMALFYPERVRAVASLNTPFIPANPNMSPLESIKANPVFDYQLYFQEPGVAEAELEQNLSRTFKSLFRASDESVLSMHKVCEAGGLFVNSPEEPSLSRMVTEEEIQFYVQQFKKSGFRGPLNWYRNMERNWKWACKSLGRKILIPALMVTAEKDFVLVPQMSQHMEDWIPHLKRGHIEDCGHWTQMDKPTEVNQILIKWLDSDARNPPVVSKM
Method: The benzimidazole-based compounds synthesized according to Example 1 were measured for activity. Using a fluorescence-based sEH biochemical inhibition assay, the IC50 value was measured for each benzimidazole-based compound. Human sEH (hsEH) and its substrate PHOME were purchased from Cayman Chemicals. IC50 values of hsEH inhibitors were determined by fluorescence. IC50 is defined as the concentration of the inhibitor that blocks 50% of the enzymatic activity. To a 96-well plate containing 10 μL enzyme (5 nM in water), 60 μL of H2O and 10 μL BisTris-HCl buffer (25 mM, pH 7.0) were added inhibitors with different concentrations. The mixture was incubated for 5 min at 30° C. prior to addition of 10 μL of PHOME substrate (50 μM). Fluorescence were measured at 30° C. with an excitation wavelength of 330 nm and an emission wavelength of 465 nm using a BioTek H1 plate reader. The IC50 values were calculated by non-linear regression fitting. The curve was generated from at least three separate runs, each in duplicates. Results are given as means and standard deviations. In Table 1, an IC50 value less than or equal to 1 μM is indicated as an “A.” an IC50 value from greater than 1 μM to less than 10 μM is indicated as a “B′” and an IC50 value of greater than or equal to 10 μM is indicated as a “C.”
Additional benzimidazole-based compounds as described herein were measured for activity according to the procedure outlined in Example 2. Briefly, using a fluorescence-based sEH biochemical inhibition assay, the IC50 value was measured for each benzimidazole-based compound.

| Compound | IC50 [µM] |
| --- | --- |
| N[C@@H](c1ccccc1)c1nc2cc(F)c(F)cc2[nH]1 [Compound 1, (S)-(5,6-difluoro-1λ^2-benzo[d]imidazol-2-yl)(phenyl)methanamine] | ≥ 10 |
| C[C@H](N)c1nc2cc(F)c(F)cc2[nH]1 [Compound 2, (S)-1-(5,6-difluoro-1λ^2-benzo[d]imidazol-2-yl)ethan-1-amine] | ≥ 10 |
| CCCN(CCC)S(=O)(=O)c1ccc(-c2nc3cc(C)c(C)cc3[nH]2)cc1 [Compound 3, 4-(5,6-dimethyl-1H-benzo[d]imidazol-2-yl)-N,N-dipropylbenzenesulfonamide] | 1 to 10 |
| Cc1cc2nc(Nc3ccc(OC(F)(F)F)cc3)[nH]c2cc1C [Compound 4, 5,6-dimethyl-N-(4-(trifluoromethoxy)phenyl)-1H-benzo[d]imidazol-2-amine] | 1 to 10 |
| CCc1ccc(-c2nc3cc(C)c(C)cc3[nH]2)cc1 [Compound 5, 2-(4-ethylphenyl)-5,6-dimethyl-1H-benzo[d]imidazole] | ≤ 1 |
| Cc1cc2nc(Nc3ccc(C(C)(C)C)cc3)[nH]c2cc1C [Compound 6, N-(4-(tert-butyl)phenyl)-5,6-dimethyl-1H-benzo[d]imidazol-2-amine] | 1 to 10 |
| COc1ccc(Nc2nc3cc(C)c(C)cc3[nH]2)cc1OC [Compound 7, N-(3,4-dimethoxyphenyl)-5,6-dimethyl-1H-benzo[d]imidazol-2-amine] | 1 to 10 |
| Cc1cc2nc(-c3ccccc3O)[nH]c2cc1C [Compound 9, 2-(5,6-dimethyl-1H-benzo[d]imidazol-2-yl)phenol] | ≥ 10 |
| Cc1cc2nc(-c3ccc(F)cc3F)[nH]c2cc1C [Compound 10, 2-(2,4-difluorophenyl)-5,6-dimethyl-1H-benzo[d]imidazole] | ≥ 10 |
| Cc1cc2nc(Oc3ccc(Br)cc3)[nH]c2cc1C [Compound 11, 2-(4-bromophenoxy)-5,6-dimethyl-1H-benzo[d]imidazole] | ≥ 10 |
| Cc1cc2nc(Oc3ccc(OC(F)(F)F)cc3)[nH]c2cc1C [Compound 12, 5,6-dimethyl-2-(4-(trifluoromethoxy)phenoxy)-1H-benzo[d]imidazole] | ≥ 10 |
| O=C(Cc1ccccc1)Nc1nc2ccccc2[nH]1 [Compound 13, N-(1H-benzo[d]imidazol-2-yl)-2-phenylacetamide] | ≥ 10 |
| O=C(Nc1cc(C(F)(F)F)cc(C(F)(F)F)c1)Nc1nc2ccccc2[nH]1 [Compound 14, 1-(1H-benzo[d]imidazol-2-yl)-3-(3,5-bis(trifluoromethyl)phenyl)urea] | ≥ 10 |
| c1ccc(-c2nc3ccccc3[nH]2)c(-c2nc3ccccc3[nH]2)c1 [Compound 15, 1,2-bis(1H-benzo[d]imidazol-2-yl)benzene] | ≥ 10 |
| Fc1cc2nc(-c3ccc(C(F)(F)F)cc3)[nH]c2cc1F [Compound 16, 5,6-difluoro-2-(4-(trifluoromethyl)phenyl)-1H-benzo[d]imidazole] | ≤ 1 |
| Fc1cc2nc(-c3ccc(-c4ccccc4)cc3)[nH]c2cc1F [Compound 17, 2-([1,1′-biphenyl]-4-y)-5,6-difluoro-1H-benzo[d]imidazole] | 1 to 10 |
| Cc1cc2nc(C3CCN(C)CC3)[nH]c2cc1C [Compound 18, 5,6-dimethyl-2-(1-methylpiperidin-4-yl)-1H-benzo[d]imidazole] | ≥ 10 |
| Cc1cc2nc(-c3ccc(C(F)(F)F)cc3)[nH]c2cc1C [Compound 19, 5,6-dimethyl-2-(4-(trifluoromethyl)phenyl)-1H-benzo[d]imidazole] | ≤ 1 |
| Cc1cc2nc(-c3ccc(-c4ccccc4)cc3)[nH]c2cc1C [Compound 20, 2-([1,1′-biphenyl]-4-yl)-5,6-dimethyl-1H-benzo[d]imidazole] | ≤ 1 |
| Cc1ccc(-c2nc3cc(C)c(C)cc3[nH]2)cn1 [Compound 21, 5,6-dimethyl-2-(6-methylpyridin-3-yl)-1H-benzo[d]imidazole] | 1 to 10 |
| Cc1cc2nc(-c3ccc(F)cn3)[nH]c2cc1C [Compound 22, 2-(5-fluoropyridin-2-yl)-5,6-dimethyl-1H-benzo[d]imidazole] | 1 to 10 |
| Cc1cc2nc(-c3ccc(=O)[nH]c3)[nH]c2cc1C [Compound 23, 5-(5,6-dimethyl-1H-benzo[d]imidazol-2-yl)pyridin-2(1H)-one] | ≥ 10 |

| Compound | IC50 [µM] |
| --- | --- |
| COc1cc(-c2nc3cc(C)c(C)cc3[nH]2)ccn1 [Compound 24, 2-(2-methoxypyridin-4-yl)-5,6-dimethyl-1H-benzo[d]imidazole] | 1 to 10 |
| Cc1cc2nc(-c3ccccn3)[nH]c2cc1C [Compound 25, 5,6-dimethyl-2-(pyridin-2-yl)-1H-benzo[d]imidazole] | ≥ 10 |
| Cc1cc2nc(-c3ccc(C(C)(C)C)cc3)[nH]c2cc1C [Compound 26, 2-(4-(tert-butyl)phenyl)-5,6-dimethyl-1H-benzo[d]imidazole] | ≤ 1 |
| Cc1cc2nc(-c3cccc(C(C)(C)C)c3)[nH]c2cc1C [Compound 27, 2-(3-(tert-butyl)phenyl)-5,6-dimethyl-1H-benzo[d]imidazole] | ≤ 1 |
| Cc1cc2nc(-c3ccc4ccccc4c3)[nH]c2cc1C [Compound 28, 5,6-dimethyl-2-(naphthalen-2-yl)-1H-benzo[d]imidazole] | ≤ 1 |
| Cc1cc2nc(-c3ccncc3)[nH]c2cc1C [Compound 29, 5,6-dimethyl-2-(pyridin-4-yl)-1H-benzo[d]imidazole] | ≥ 10 |
| Cc1cc2nc(-c3cccnc3)[nH]c2cc1C [Compound 30, 5,6-dimethyl-2-(pyridin-3-yl)-1H-benzo[d]imidazole] | ≥ 10 |
| Cc1cc2nc(-c3ccnn3C)[nH]c2cc1C [Compound 31, 5,6-dimethyl-2-(1-methyl-1H-pyrazol-5-yl)-1H-benzo[d]imidazole] | ≥ 10 |
| Fc1cc2nc(-c3ccoc3)[nH]c2cc1F [Compound 32, 5,6-difluoro-2-(furan-3-yl)-1H-benzo[d]imidazole] | ≥ 10 |
| Oc1ccc(-c2nc3cc(F)c(F)cc3[nH]2)cc1 [Compound 33, 4-(5,6-difluoro-1H-benzo[d]imidazol-2-yl)phenol] | ≥ 10 |
| FC(F)(F)c1ccc(-c2nc3cc(Cl)c(Cl)cc3[nH]2)cc1 [Compound 34, 5,6-dichloro-2-(4-(trifluoromethyl)phenyl)-1H-benzo[d]imidazole] | 1 to 10 |
| CCc1ccc(-c2nc3cc(F)c(F)cc3[nH]2)cc1 [Compound 35, 2-(4-ethylphenyl)-5,6-difluoro-1H-benzo[d]imidazole imidazole] | ≤ 1 |
| FC(F)(F)c1ccc(-c2nc3ccccc3[nH]2)cc1 [Compound 36, 2-(4-(trifluoromethyl)phenyl)-1H-benzo[d]imidazole] | 1 to 10 |
| CCc1ccc(-c2nc3ccccc3[nH]2)cc1 [Compound 37, 2-(4-ethylphenyl)-1H-benzo[d]imidazole] | 1 to 10 |
| FC(F)(F)c1ccc(-c2nc3cc(Br)c(Br)cc3[nH]2)cc1 [Compound 38, 5,6-dibromo-2-(4-(trifluoromethyl)phenyl)-1H-benzo[d]imidazole] | ≥ 10 |
| CCc1ccc(-c2nc3cc(Br)c(Br)cc3[nH]2)cc1 [Compound 39, 5,6-dibromo-2-(4-ethylphenyl)-1H-benzo[d]imidazole] | 1 to 10 |
| CC(C)(C)c1ccc2[nH]c(-c3ccc(C(F)(F)F)cc3)nc2c1 [Compound 40, 5-(tert-butyl)-2-(4-(trifluoromethyl)phenyl)-1H-benzo[d]imidazole] | 1 to 10 |
| Cc1ccc2[nH]c(-c3ccc(C(F)(F)F)cc3)nc2c1C [Compound 41, 4,5-dimethyl-2-(4-(trifluoromethyl)phenyl)-1H-benzo[d]imidazole] | ≤ 1 |
| COc1cc2nc(-c3ccc(C(F)(F)F)cc3)[nH]c2cc1OC [Compound 42, 5,6-dimethoxy-2-(4-(trifluoromethyl)phenyl)-1H-benzo[d]imidazole] | 1 to 10 |
| Fc1cc2nc(-c3ccc(C(F)(F)F)cc3)[nH]c2cc1Cl [Compound 43, 6-chloro-5-fluoro-2-(4-(trifluoromethyl)phenyl)-1H-benzo[d]imidazole] | ≤ 1 |
| Fc1cc2nc(-c3ccc(C(F)(F)F)cc3)[nH]c2cc1Br [Compound 44, 6-bromo-5-fluoro-2-(4-(trifluoromethyl)phenyl)-1H-benzo[d]imidazole] | ≤ 1 |
